From ChEMBL document CHEMBL1201862, “PubChem BioAssay data set” (2004)
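Grown in 96-well plates, cells were treated for 48 hours with each compound at five concentrations. Insufficient inhibition: endpoint recorded as highest concentration tested. Abbreviation: GI50, concentration required for 50% inhibition of growth.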 Activity calls are given as the source filed them. Cut-off read from the data, not from the text of the source: active = GI50 up to about 1.1 µM and inactive = higher.

How the values were obtained:
Experiment in all cases: NCI-60 cell line screen, 48 h
HCT-116 = tested on: HCT-116
SK-MEL-2 = tested on: SK-MEL-2
M14 = tested on: M14
SF-268 = tested on: SF-268
OVCAR-8 = tested on: OVCAR-8
HOP-62 = tested on: HOP-62
IGROV-1 = tested on: IGROV-1
EKVX = tested on: EKVX
KM12 = tested on: KM12
UO-31 = tested on: UO-31
CCRF-CEM = tested on: CCRF-CEM
SK-MEL-28 = tested on: SK-MEL-28
MCF7 = tested on: MCF7
HL-60 = tested on: HL-60
BT-549 = tested on: BT-549
COLO 205 = tested on: COLO 205
MDA-MB-435 = tested on: MDA-MB-435
T47D = tested on: T47D
ACHN = tested on: ACHN
RXF 393 = tested on: RXF 393
SF-539 = tested on: SF-539
786-0 = tested on: 786-0
CAKI-1 = tested on: CAKI-1
SK-MEL-5 = tested on: SK-MEL-5
HCC 2998 = tested on: HCC 2998
UACC-257 = tested on: UACC-257
LOX IMVI = tested on: LOX IMVI
HT-29 = tested on: HT-29
HOP-92 = tested on: HOP-92
NCI/ADR-RES = tested on: NCI/ADR-RES
UACC-62 = tested on: UACC-62
RPMI-8226 = tested on: RPMI-8226
OVCAR-4 = tested on: OVCAR-4
SNB-19 = tested on: SNB-19
MOLT-4 = tested on: MOLT-4
SR = tested on: SR
SNB-75 = tested on: SNB-75
Hs-578T = tested on: Hs-578T
SF-295 = tested on: SF-295
NCI-H226 = tested on: NCI-H226
OVCAR-3 = tested on: OVCAR-3
A498 = tested on: A498
OVCAR-5 = tested on: OVCAR-5
Malme-3M = tested on: Malme-3M
TK-10 = tested on: TK-10
SW-620 = tested on: SW-620
NCI-H23 = tested on: NCI-H23
K562 = tested on: K562
U-251 = tested on: U-251
NCI-H522 = tested on: NCI-H522
DU-145 = tested on: DU-145
SN12C = tested on: SN12C
A549 = tested on: A549
HCT-15 = tested on: HCT-15
MDA-MB-231 = tested on: MDA-MB-231
PC-3 = tested on: PC-3
SK-OV-3 = tested on: SK-OV-3
NCI-H460 = tested on: NCI-H460

CCCCc1ccc(Nc2nc(SC)c3[nH]cnc3n2)cc1
GI50 (HCT-116): 23.6 µM (inactive) | GI50 (SK-MEL-2): > 38.5 µM (inactive) | GI50 (M14): > 100 µM (inactive) | GI50 (SF-268): 65.5 µM (inactive) | GI50 (OVCAR-8): 30.2 µM (inactive) | GI50 (HOP-62): 10.2 µM (inactive) | GI50 (IGROV-1): 24.7 µM (inactive) | GI50 (EKVX): 24.9 µM (inactive) | GI50 (KM12): 17.9 µM (inactive) | GI50 (UO-31): > 78.2 µM (inactive) | GI50 (CCRF-CEM): 6.19 µM (inactive) | GI50 (SK-MEL-28): > 100 µM (inactive) | GI50 (MCF7): > 24.4 µM (inactive) | GI50 (HL-60): 3.43 µM (inactive) | GI50 (BT-549): > 100 µM (inactive) | GI50 (COLO 205): > 91.2 µM (inactive) | GI50 (MDA-MB-435): 5.33 µM (inactive) | GI50 (T47D): > 100 µM (inactive) | GI50 (ACHN): 12.7 µM (inactive) | GI50 (RXF 393): 28.2 µM (inactive) | GI50 (SF-539): 36.6 µM (inactive) | GI50 (786-0): 16.4 µM (inactive) | GI50 (CAKI-1): 16.9 µM (inactive) | GI50 (SK-MEL-5): 17.7 µM (inactive) | GI50 (HCC 2998): > 80.4 µM (inactive) | GI50 (UACC-257): > 100 µM (inactive) | GI50 (LOX IMVI): > 46.6 µM (inactive) | GI50 (HT-29): 15.8 µM (inactive) | GI50 (HOP-92): 15.5 µM (inactive) | GI50 (NCI/ADR-RES): 23.6 µM (inactive) | GI50 (UACC-62): 45.5 µM (inactive) | GI50 (RPMI-8226): > 56 µM (inactive) | GI50 (OVCAR-4): > 100 µM (inactive) | GI50 (SNB-19): 36.6 µM (inactive) | GI50 (MOLT-4): 2.81 µM (inactive) | GI50 (SR): 2.01 µM (inactive) | GI50 (SNB-75): > 100 µM (inactive) | GI50 (Hs-578T): 43 µM (inactive) | GI50 (SF-295): > 47.9 µM (inactive) | GI50 (NCI-H226): > 73.6 µM (inactive) | GI50 (OVCAR-3): > 55 µM (inactive) | GI50 (A498): 18.7 µM (inactive) | GI50 (OVCAR-5): > 100 µM (inactive) | GI50 (Malme-3M): > 100 µM (inactive) | GI50 (TK-10): 45.2 µM (inactive) | GI50 (SW-620): 24.5 µM (inactive) | GI50 (NCI-H23): 28.6 µM (inactive) | GI50 (K562): 3.61 µM (inactive) | GI50 (U-251): 26.2 µM (inactive) | GI50 (NCI-H522): 20.6 µM (inactive) | GI50 (DU-145): > 100 µM (inactive) | GI50 (SN12C): > 84.9 µM (inactive) | GI50 (A549): > 100 µM (inactive) | GI50 (HCT-15): > 32.9 µM | GI50 (MDA-MB-231): 84.3 µM (inactive) | GI50 (PC-3): > 100 µM (inactive) | GI50 (SK-OV-3): > 43.5 µM (inactive) | GI50 (NCI-H460): 13.9 µM (inactive)

COc1ccccc1-c1cc(O)c2c(C)ccnc2n1
GI50 (SK-MEL-2): 26.7 µM (inactive) | GI50 (M14): 42.4 µM (inactive) | GI50 (SF-268): 45.5 µM (inactive) | GI50 (OVCAR-8): 43.6 µM (inactive) | GI50 (HOP-62): 30.1 µM (inactive) | GI50 (IGROV-1): > 100 µM (inactive) | GI50 (EKVX): 37 µM (inactive) | GI50 (KM12): 27.7 µM (inactive) | GI50 (UO-31): 33 µM (inactive) | GI50 (CCRF-CEM): 35.6 µM (inactive) | GI50 (SK-MEL-28): 84.3 µM (inactive) | GI50 (MCF7): 26.5 µM (inactive) | GI50 (BT-549): 7.1 µM (inactive) | GI50 (COLO 205): 19.5 µM (inactive) | GI50 (T47D): 16.2 µM (inactive) | GI50 (ACHN): 28.4 µM (inactive) | GI50 (RXF 393): 29.7 µM (inactive) | GI50 (SF-539): 30.8 µM (inactive) | GI50 (CAKI-1): 33 µM (inactive) | GI50 (HCC 2998): 64.9 µM (inactive) | GI50 (UACC-257): 47.9 µM (inactive) | GI50 (LOX IMVI): 37.9 µM (inactive) | GI50 (HT-29): 33.1 µM (inactive) | GI50 (HOP-92): 66.7 µM (inactive) | GI50 (NCI/ADR-RES): 19.3 µM (inactive) | GI50 (UACC-62): 42.9 µM (inactive) | GI50 (RPMI-8226): 59.8 µM (inactive) | GI50 (OVCAR-4): 46.2 µM (inactive) | GI50 (SNB-19): 26.3 µM (inactive) | GI50 (MOLT-4): 31.7 µM (inactive) | GI50 (SR): 14.2 µM (inactive) | GI50 (SNB-75): 12.9 µM (inactive) | GI50 (Hs-578T): 11.5 µM (inactive) | GI50 (NCI-H226): 15.8 µM (inactive) | GI50 (A498): 27.6 µM (inactive) | GI50 (OVCAR-5): 52.4 µM (inactive) | GI50 (Malme-3M): 39 µM (inactive) | GI50 (TK-10): > 100 µM (inactive) | GI50 (SW-620): 6.1 µM (inactive) | GI50 (NCI-H23): 29.9 µM (inactive) | GI50 (K562): 14.2 µM (inactive) | GI50 (NCI-H522): 15.8 µM (inactive) | GI50 (DU-145): 41.2 µM (inactive) | GI50 (SN12C): 41 µM (inactive) | GI50 (A549): 43.7 µM (inactive) | GI50 (HCT-15): 28.4 µM | GI50 (MDA-MB-231): 26.7 µM (inactive) | GI50 (SK-OV-3): 23 µM (inactive)
